The source of these data is publication PMC4224607 (Chemical communications (Cambridge, England), 2014).

Molecules are shown by their SMILES.

This experiment is described as follows: COPAS bead-based screening, background binding of the dye to library beads. The settings on record: TR-labeled lysine and TR-labeled hCAII.

As for `O=S(=O)([O-])c1cc(S(=O)(=O)Cl)ccc1C1=c2cc3c4c(c2Oc2c1cc1c5c2CCCN5CCC1)CCC[N+]=4CCC3` [TR], the “composition of positive peptides: positively charged amino acids” value was “reduced abundance of positively charged amino acids”.
